Key:
Format in all cases: in vivo
[1] = system: Prunus avium (Napoleon); experiment: Sugar content determination of Prunus avium fruit with refractometer (Example 8); details: leaf surface coated with 0.5 mM 4 and 3 weeks before harvest; vs no GSSG; ANOVA 5%
Procedure: (§1) In the present example, Prunus avium was cultivated. Specifically, 4 weeks and 3 weeks before an expected date of harvesting Prunus avium (Napoleon) fruit, a surface of a leaf on a branch having the fruit to be harvested was coated with 0.5 mM GSSG. The fruit was harvested on the expected date.
(§2) Next, the fruit harvested was subjected to a sensory test of sugar content. As a result, it was determined that the fruit applied with GSSG increased in sugar content and decreased in acidity. Further, it was determined that the fruit applied with GSSG increased in weight. Furthermore, the fruit obtained was subjected to sugar content determination using “Pocket” Refractometer APAL-1 (ATAGO CO., LTD.). For comparison, fruit applied with no GSSG was also subjected to the sugar content determination. […] In FIG. 5, the vertical scale indicates sugar content (Brix, unit: %).

[2] = system: Lycopersicum esculentum; experiment: Cultivation of Lycopersicum esculentum with GSSG or GSH, sensory tests of fruit (Example 1); details: 50 mL of 0.5 mM at root twice a week, 60 days
Description: In the present example, Lycopersicum esculentum was cultivated with use of GSSG or GSH. Details of cultivation are described below.
First, Lycopersicum esculentum seedlings (TAKII & CO. Ltd., product name: Osama tomato reika) were transplanted into a hydroponic culture pot ( 1/2000 a). In the hidroponic culture pot, 6 L of vermiculite (ASAHI INDUSTRIES Co., LTD.), 3 L of KUREHA horticultural soil (KUREHA CORPORATION), and 3 L of vermiculite were layered as a lower, middle, and upper layers, respectively.
During the cultivation of Lycopersicum esculentum, 50 mL of 0.5 mM GSSG or 0.5 mM GSH (adjusted with 0.1N NaOH to be at pH 7) was applied twice a week at a root per plant. The Lycopersicum esculentum plants were grown for 60 days without being subjected to bud removal. Last 10 days was used as a harvest period for harvesting fruit of the plants. For comparison, a Lycopersicum esculentum plant was grown under the same condition, except that GSSG and GSH were not applied. To the plants of any condition, 3 g of Kumiai phosphorate ammonium nitrate potassium S-604 (Chisso Asahi Fertilizer Co., Ltd.) was applied as an additional fertilizer once in 2 weeks.
Next, the fruit harvested was subjected to sensory tests of sugar content and the like. As a result, it was determined that fruit of the plant applied with GSSG increased in sugar content compared to that of the plant not applied with GSSG or GSH. Further, it was determined that the plant applied with GSSG increased in number of fruit. It was determined that fruit of the plant applied with GSH increased in sugar content and acidity.

[3] = system: Fragaria ananassa; experiment: Sugar content determination of Fragaria ananassa fruit with refractometer (Example 10); details: 50 mL of 0.2 or 0.5 mM GSSG, or 0.4 or 0.5 mM GSH, once a week at root; significance level 5%
Procedure: First, Fragaria ananassa seedlings were transplanted to a planter. In the planter, 6 L of vermiculite (ASAHI INDUSTRIES Co., LTD.), 3 L of KUREHA horticultural soil (KUREHA CORPORATION), and 3 L of vermiculite were layered as a lower, middle, and upper layers, respectively.
During cultivation of Fragaria ananassa plants, 50 mL of 0.2 mM or 0.5 mM GSSG or 50 mL of 0.4 mM or 0.5 mM GSH (adjusted with 0.1N NaOH to be at pH7) was applied once a week at a root per plant. The plants were grown for 63 days without being subjected to bud removal. For comparison, a Fragaria ananassa plant was grown under the same condition, except that GSSG and GSH were not applied. To the plants of any condition, 3 g of Kumiai phosphorate ammonium nitrate potassium S-604 (Chisso Asahi Fertilizer Co., Ltd.) was applied as an additional fertilizer once in 2 weeks.
Further, the fruit obtained was subjected to sugar content determination using “Pocket” Refractometer APAL-1 (ATAGO CO., LTD.). For comparison, fruit not applied with GSSG or GSH was also subjected to the sugar content determination. […] In FIG. 7, the vertical scale indicates sugar content (Brix, unit: %).

[4] = system: Citrus unshiu; experiment: Citrus unshiu leaf coating with GSSG, sensory test of fruit (Example 9); details: leaf surface coated with 0.5 mM one week before harvest
Procedure: (§3) In the present example, Citrus unshiu was cultivated. Specifically, one week before an expected date of harvesting Citrus unshiu fruit, a surface of a leaf on a branch having the fruit to be harvested was coated with 0.5 mM GSSG. The fruit was harvested on the expected date.
(§4) Next, the fruit harvested was subjected to a sensory test of sugar content. As a result, it was determined that the fruit applied with GSSG increased in sugar content and decreased in acidity. Further, it was determined that the fruit applied with GSSG increased in weight. Furthermore, the fruit obtained was subjected to sugar content determination using “Pocket” Refractometer APAL-1 (ATAGO CO., LTD.). For comparison, fruit applied with no GSSG was also subjected to the sugar content determination. […] In FIG. 6, the vertical scale indicates sugar content (Brix, unit: %).

[5] = system: Prunus avium (Napoleon); experiment: Prunus avium leaf coating with GSSG, sensory test of fruit (Example 8); details: leaf surface coated with 0.5 mM 4 weeks and 3 weeks before harvest
Procedure: as §1, §2

[6] = system: Citrus unshiu; experiment: Sugar content determination of Citrus unshiu fruit with refractometer (Example 9); details: leaf surface coated with 0.5 mM one week before harvest; vs no GSSG; ANOVA 5%
Procedure: as §3, §4

[7] = system: Lycopersicum esculentum; experiment: Change of sugar content over time after one application of GSH or GSSG (Example 6); details: 50 mL of 0.5 mM once at root 90 days after sowing; fruit harvested day 0 to day 4
Procedure: In the present example, a sugar content of a plant was determined after a substance for regulating an oxidation-reduction state of a cell was applied to the plant. The substance for regulating an oxidation-reduction state of a cell was GSH or GSSG. As in the case of Example 1, Lycopersicum esculentum was used as the plant. Specifically, the following operations were carried out.
Ninety days after sowing of Lycopersicum esculentum seeds, Lycopersicum esculentum plants were subjected to a GSH or GSSG treatment. The Lycopersicum esculentum plants were cultivated by the same method as in Example 1 except for the GSH or GSSG treatment. The GSH or GSSG treatment was such that 50 mL of 0.5 mM GSSH or 0.5 mM GSH (adjusted with 0.1N NaOH to be at pH 7) was applied once at a root per plant. Then, fruit of the plants was harvested every day from the 0th day until the 4th day after application of GSH or GSSG, and subjected to sugar content determination. […] FIG. 3 is a graph showing a determination result of relation between sugar content and the number of days from an application day of GSH or GSSG. In FIG. 3, the vertical scale indicates sugar content (Brix, unit: %) and the horizontal scale indicates days from the application day. In FIG. 3, lines labeled with circles, triangles, and squares show results of the plants applied with GSH, GSSG, and no GSH and no GSSG, respectively. […]

oxidized glutathione [GSSG]
sugar content of fruit (Brix) [1]: significantly improved
number of fruit [2]: increased
sugar content of fruit (sensory test) ([2]; compared to plant not applied with GSSG or GSH): increased
sugar content of fruit (Brix), ANOVA versus fruit not applied [3]: significant difference
acidity of fruit (sensory test) [4]: decreased
sugar content of fruit (sensory test) [4]: increased
weight of fruit [4]: increased
acidity of fruit (sensory test) [5]: decreased
sugar content of fruit (sensory test) [5]: increased
weight of fruit [5]: increased
sugar content of fruit (Brix) [6]: significantly improved
sugar content of fruit (Brix) after application [7]: rapidly improve

Source: US8524978B2, “Composition for production of plant body having improved sugar content, and use thereof” (Japan Science and Technology Agency, priority 2007, dated 2013)
